Test results published in US20210308034A1, “PREBIOTIC COMPOSITIONS AND METHODS FOR MAINTAINING A HEALTHY SKIN MICROBIOTA” (KIMBERLY-CLARK WORLDWIDE, INC., priority 2018, published 2021).

What was measured:
Format in all cases: cell-based
[1] = system: Staphylococcus epidermidis (ATCC 14990); assay: Carbohydrate Screening Test Method (Biolog phenotype microarray), Bacteria Code I; conditions: Commensal; carbon microarray plate, OD 600 nm, 36 hr, 33° C.; positive = more than 0.05 OD units above zero; blank cell = not utilized
Excerpt: (§1) After creating desired ratios of various commensal skin bacteria in a healthy skin microbiome, 188 different carbohydrate sources were screened as the next step in determining potential prospects for skin microbiota balancing agents. The screening process was set up to determine which carbohydrate sources promoted commensal and/or pathogenic bacteria as well as to obtain individual and combinations of carbohydrate sources that could serve as microbiota balancing agents that can support or maintain the healthy proportions of commensal skin bacteria of Corynebacterium, Staphylococcus, and Micrococcus. The screening was conducted utilizing Biolog phenotype microarray plates (Hayward, Calif.). Table 1 provides a coded list of the commensal and pathogenic skin bacteria that the carbohydrates were screened against.
Table 2 provides the results of screening various carbohydrate sources against the commensal and pathogenic bacteria codes listed in Table 1. The Bacteria Codes B, D, E, I, and J are commensal bacteria and are shaded in Table 2 for references purposes. The bacteria codes were each placed in a carbon microarray plate and screened through the Carbohydrate Screening Test Method, as described in the Test Methods section herein. If a particular bacteria code utilized a specific carbohydrate source as described in the Carbohydrate Screening Test Method, then the corresponding cell in Table 2 was marked with a Y (short for “Yes”). […] Many of the carbohydrate sources were utilized by both commensal and pathogenic bacteria, and as such, would not provide an advantage for selective growth of the commensal bacteria. However, some of the carbohydrate sources were only used by commensal bacteria and were identified for further testing as described herein.
(§2) The study employed 10 representative skin bacteria; Staphylococcus epidermidis ATCC 14990, Staphylococcus epidermidis M23864:W2, Staphylococcus aureus ATCC 6538, Staphylococcus aureus ATCC 25904 (Newman), Pseudomonas aeruginosa ATCC 9027, Micrococcus luteus ATCC […], Micrococcus luteus SK58, Klebsiella pneumoniae ATCC BAA-2146, Corynebacterium amycolatum SK46, and Corynebacterium minutissimum ATCC 23348. Cultures were started from freezer bead stocks by placing a single bead into 20 mL of tryptic soy broth (TSB) for all organisms except C. amycolatum SK46 and C. minutissimum ATCC 23348, which were placed into brain heart infusion (BHI) broth. Cultures were grown for about 24 hr at 37° C. except M. luteus ATCC 49732 and M. luteus SK58, which were grown at 30° C. A passage of the culture was made using a sterile swab and streaked onto two M9*2 agar plates to prepare the incubated culture for the phenotype microarray pate according to Table 4. Plates were incubated for about 24 hr at 37° C. except for M. luteus ATCC 49732 and M. luteus SK58, which were incubated at 30° C. for 24 hr.
(§3) All cultures were harvested and washed before inoculation into the carbon microarray plate (BiOLOG, Hayward Calif.), with Biolog Plates PM1 and PM2 each having a source definition of Carbon. The bacteria on the M9*2 agar was suspended via agitation with an inoculating loop in 1 mL of M9*1 media for collection in a 1.7 mL micro centrifuge tube, as noted in Table 4. The bacteria was suspended again in M9*1 media, agitated, and collected into the same 1.7 mL microcentrifuge tube used in the previous step. The tube was centrifuged for 5 minutes at 4,000×G, supernatant decanted, the pellet was resuspended in 1 mL of M9*1 media, and vortex. This washing process was repeated for a total of 4 times.
A tenfold dilution in M9*1 media was performed using 1 mL of the washed bacterial culture. Of the tenfold dilution 200 μL was placed in an untreated 96-well plate (Falcon, Pasadena Tx.) for an initial optical density (OD) reading at a wavelength of 600 nm. The OD was used to correlate to colony forming units (CFU) per milliliter by using linear regression lines for each organism. […]

[2] = system: Staphylococcus epidermidis (M23864:W2); assay: Carbohydrate Screening Test Method (Biolog phenotype microarray), Bacteria Code J; conditions: Commensal; carbon microarray plate, OD 600 nm, 36 hr, 33° C.; positive = more than 0.05 OD units above zero; blank cell = not utilized
Excerpt: as §1
(§4) The Bacteria Codes B, D, E, I, and J are commensal bacteria and are shaded in Table 2 for references purposes. The bacteria codes were each placed in a carbon microarray plate and screened through the Carbohydrate Screening Test Method, as described in the Test Methods section herein. If a particular bacteria code utilized a specific carbohydrate source as described in the Carbohydrate Screening Test Method, then the corresponding cell in Table 2 was marked with a Y (short for “Yes”).
To do so, the respective microarray data for the 79 carbohydrate sources was run through the GrowthRates 2.1 program to obtain growth parameters, such as growth rates and maximum yield data as described by the Belingham Research Institute, Hall, B. G., H. Acar and M. Barlow. 2014 Growth Rates Made Easy. Mol. Biol. Evol. 31:232-238 doi:10.1093/molbev/mst197. The max yield parameters generated were utilized to calculate ratios of tested commensal bacteria. The ratios calculated were compared back to the desired ratios identified above (Corynebacterium to Staphylococcus of 1.3, Corynebacterium to Micrococcus of 1.4, and Staphylococcus to Micrococcus of 1.1).
As an example of this methodology used to calculate the commensal bacteria ratios and the difference between the calculated ratios and the desired ratios, an example code from Table 3 will be described. […] The max yields were then used to calculate ratios the bacteria would reach in a co-culture.

[3] = system: Corynebacterium jeikum (ATCC 33033); assay: Carbohydrate Screening Test Method (Biolog phenotype microarray), Bacteria Code B; conditions: Commensal; carbon microarray plate, OD 600 nm, 36 hr, 33° C.; positive = more than 0.05 OD units above zero; blank cell = not utilized
Method in brief: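 Strain from M9*2 agar was suspended in M9*1 medium, washed and inoculated into Biolog PM1/PM2 carbon plates. Carbohydrate use was scored yes/no, and growth rate and maximum yield were derived with GrowthRates 2.1, with max yields used for commensal ratios.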

[4] = system: Micrococcus luteus (SK58); assay: Carbohydrate Screening Test Method (Biolog phenotype microarray), Bacteria Code E; conditions: Commensal; carbon microarray plate, OD 600 nm, 36 hr, 33° C.; positive = more than 0.05 OD units above zero; blank cell = not utilized
Method in brief: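 Each commensal strain grown in Biolog carbon phenotype microarray plates with single carbohydrate sources. Growth curves fitted with GrowthRates 2.1 to give growth rate and maximum yield. Max yields used to calculate predicted co-culture ratios between Corynebacterium, Staphylococcus and Micrococcus, compared with desired ratios of 1.3, 1.4 and 1.1.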

[5] = system: Klebsiella pneumoniae (ATCC BAA-2146); conditions: Pathogenic; carbon microarray plate, OD 600 nm, 36 hr, 33° C.; positive = more than 0.05 OD units above zero; blank cell = not utilized
[6] = system: commensal and pathogenic skin bacteria; assay: Carbohydrate Screening Test Method, all bacteria codes tested; conditions: ten bacteria codes of Table 1
Excerpt: as §1, §4, §2, §3
A tenfold dilution in M9*1 media was performed using 1 mL of the washed bacterial culture.

[7] = system: Pseudomonas aeruginosa (ATCC 9027); conditions: Pathogenic; carbon microarray plate, OD 600 nm, 36 hr, 33° C.; positive = more than 0.05 OD units above zero; blank cell = not utilized
Excerpt: as §1, §4, §2, §3
A tenfold dilution in M9*1 media was performed using 1 mL of the washed bacterial culture. Of the tenfold dilution 200 μL was placed in an untreated 96-well plate (Falcon, Pasadena Tx.) for an initial optical density (OD) reading at a wavelength of 600 nm. The OD was used to correlate to colony forming units (CFU) per milliliter by using linear regression lines for each organism.

Row | Molecule | Carbohydrate Screening Results, Bacteria Code I [1] | Carbohydrate Screening Results, Bacteria Code J [2] | utilization by the bacteria codes tested [6] | other results
1 | CC(=O)C(C)O (stereo not shown) [3-Hydroxy 2-Butanone] | Y | Y | – | –
2 | CC(O)C(C)O (stereo not shown) [2,3-Butanediol] | Y | Y | – | –
3 | N[C@@H](CO)C(=O)O [L-Serine] | Y | Y | – | Carbohydrate Screening Results, Bacteria Code B [3]: Y; Carbohydrate Screening Results, Bacteria Code E [4]: Y
4 | Inulin | Y | Y | – | –
5 | OC[C@H]1O[C@@H]2O[C@H]3[C@H](O)[C@@H](O)[C@@H](O[C@H]4[C@H](O)[C@@H](O)[C@@H](O[C@H]5[C@H](O)[C@@H](O)[C@@H](O[C@H]6[C@H](O)[C@@H](O)[C@@H](O[C@H]7[C@H](O)[C@@H](O)[C@@H](O[C@H]1[C@H](O)[C@H]2O)O[C@@H]7CO)O[C@@H]6CO)O[C@@H]5CO)O[C@@H]4CO)O[C@@H]3CO [α-Cyclodextrin] | Y | Y | – | –
6 | OC[C@@H](O)[C@@H](O[C@@H]1O[C@H](CO)[C@H](O)[C@H](O)[C@H]1O)[C@H](O)[C@@H](O)CO [Lactitol] | Y | Y | – | Carbohydrate Screening Results, Bacteria Code C [5]: Y
7 | N[C@@H](CCO)C(=O)O [L-Homoserine] | Y | – | – | –
8 | OC[C@H]1O[C@@H](O[C@H]2[C@H](O)[C@@H](O)[C@H](O)O[C@@H]2CO)[C@H](O)[C@@H](O)[C@@H]1O [D-Cellobiose] | Y | – | – | Carbohydrate Screening Results, Bacteria Code B [3]: Y; Carbohydrate Screening Results, Bacteria Code C [5]: Y; Carbohydrate Screening Results, Bacteria Code E [4]: Y
9 | OC[C@H]1O[C@@H](O[C@H]2[C@H](O)[C@@H](O)[C@@H](O)O[C@@H]2CO)[C@H](O)[C@@H](O)[C@H]1O [α-D-Lactose] | Y | Y | – | Carbohydrate Screening Results, Bacteria Code B [3]: Y; Carbohydrate Screening Results, Bacteria Code E [4]: Y
10 | O=CC[C@H](O)[C@H](O)CO [2-Deoxy-D-Ribose] | – | – | not utilized by any of the bacteria | –
11 | COC(=O)C(C)=O [Methyl Pyruvate] | Y | Y | – | Carbohydrate Screening Results, Bacteria Code B [3]: Y
12 | Tween 80 | Y | – | – | Carbohydrate Screening Results, Bacteria Code B [3]: Y; Carbohydrate Screening Results, Bacteria Code E [4]: Y
13 | OC[C@@H](O)[C@H](O)[C@@H](O)CO [Xylitol] | – | – | not utilized by any of the bacteria | –
14 | Pectin | Y | Y | – | –
15 | OC[C@H](O)C(O)[C@@H](O)CO [L-Arabitol] | – | – | not utilized by any of the bacteria | –
16 | N[C@@H](Cc1ccccc1)C(=O)O [L-Phenylalanine] | – | – | not utilized by any of the bacteria | –
17 | COC(=O)CCC(=O)O [Mono Methyl Succinate] | Y | – | – | Carbohydrate Screening Results, Bacteria Code B [3]: Y; Carbohydrate Screening Results, Bacteria Code E [4]: Y

Row | Molecule | Carbohydrate Screening Results, Bacteria Code I [1] | Carbohydrate Screening Results, Bacteria Code J [2] | utilization by the bacteria codes tested [6] | other results
18 | O=C(O)CCCCCCCCC(=O)O [Sebacic Acid] | Y | Y | – | –
19 | Tween 20 | – | – | not utilized by any of the bacteria | –
20 | OC[C@H]1O[C@@H](O)[C@H](O)[C@H](O)[C@@H]1O [β-D-Allose] | – | – | not utilized by any of the bacteria | –
21 | CCC(C)N (stereo not shown) [Sec-Butylamine] | – | – | not utilized by any of the bacteria | –
22 | O=C(CO)[C@@H](O[C@H]1O[C@H](CO)[C@@H](O)[C@H](O)[C@H]1O)[C@H](O)[C@H](O)CO [Turanose] | Y | – | – | –
23 | C/C=C/C=C/C(=O)O [Sorbic Acid] | – | – | not utilized by any of the bacteria | –
24 | O=C(O)C[C@@H](O)C(=O)O [D-Malic Acid] | Y | – | – | Carbohydrate Screening Results, Bacteria Code B [3]: Y; Carbohydrate Screening Results, Bacteria Code E [4]: Y
25 | O=C(O)Cc1ccc(O)cc1 [p-hydroxy phenyl acetic acid] | – | – | not utilized by any of the bacteria | –
26 | CC(O)CC(=O)O (stereo not drawn) [β-Hydroxy Butyric Acid] | Y | – | – | Carbohydrate Screening Results, Bacteria Code F [7]: Y
27 | NCC(=O)O [Glycine] | – | – | not utilized by any of the bacteria | –
28 | Nc1ncnc2c1ncn2C1CC(O)C(CO)O1 (stereo not shown) [2-Deoxy Adenosine] | – | – | not utilized by any of the bacteria | –
29 | OC[C@H]1O[C@@H](O[C@@H]2[C@@H](CO)OC(O)(CO)[C@H]2O)[C@H](O)[C@@H](O)[C@H]1O (mixture of isomers) [Lactulose] | Y | Y | – | Carbohydrate Screening Results, Bacteria Code B [3]: Y; Carbohydrate Screening Results, Bacteria Code E [4]: Y
30 | O=C(O)CC(O)C(=O)O (racemic) [D,L-Malic Acid] | Y | Y | – | Carbohydrate Screening Results, Bacteria Code B [3]: Y; Carbohydrate Screening Results, Bacteria Code E [4]: Y
31 | NCCCCN [Putrescine] | Y | Y | – | Carbohydrate Screening Results, Bacteria Code C [5]: Y
32 | O=C(O)C(=O)O [Oxalic Acid] | Y | Y | – | –
33 | 2,3-Butanone | – | – | not utilized by any of the bacteria | –
34 | NCCCC(=O)O [γ-Amino Butyric Acid] | Y | Y | – | –
